Legend:
tau peptide R3 [1] = target: T1, tau peptide R3 (Homo sapiens, UniProt P10636); assay: ThS assay, heparin-induced R3 aggregation (kinetics and dose-response); format: biochemical; conditions: 80 μM compound, 15 μM R3, 3.8 μM heparin, 37 °C, 3 h
T1 construct: R3 (^306VQIVYK PVDLSK VTSKCG SLGNIH HKPGGG Q^336) and rabbit anti-tau antibody were purchased from MuJin; purchased MuJin
Protocol: The inhibition effect of 4GA–2GA on R3 aggregation was explored by thioflavin S (ThS) assay ([24]). In general, the kinetics of R3 aggregation in the absence or the presence of 4GA, 2GA was assessed by measuring the emission intensity of ThS at 500 nm, which reflects the amount of R3 aggregates. As the control experiments, the aggregation kinetics of 4ME and GA were also carried out. While induced by heparin, R3 aggregates rapidly at 37 °C, and the fluorescence of ThS reaches a maximum after an average time of 200 s (Fig. 4A). Based on the aforementioned conditions, the inhibitory ability of our synthetic compounds at three different concentrations (5, 10, and 40 μM) was tested.
Next, the dose–response inhibitory effects of our synthetic compounds on R3 aggregation were investigated. The detailed experimental operation was descripted in ESI. […] The apparent values of IC50 were calculated according to the dose−response curve.
Tau peptide R3 was adjusted to a concentration of 15 μM using 50 mM Tris−HCl buffer (pH 7.4), ThS (final concentration of 10 μM), and different amounts of 4GA, 2GA, 4ME, and GA (final concentration of 0, 5, 10, and 40 μM) as the aggregation inhibitor were added in1to the reaction mixture. Aggregation was induced by adding heparin to the solution (final concentration of 3.8 μM); the kinetics of each sample was immediately monitored by a fluorescence spectrophotometer with a 10-mm quartz cell at 440/500 nm (excitation/emission). A circulating water bath was necessary to maintain the temperature at 37 °C.
Tau peptide R3 was adjusted to a concentration of 15 μM using 50 mM Tris–HCl buffer (pH 7.4). Different amounts of 4GA, 2GA, 4ME, and GA (final concentration of 0, 1, 2, 4, 6, 10, 15, 20, 30, 40, 60, or 80 μM) as the aggregation inhibitors were added into the reaction mixture. Aggregation was induced by adding heparin to the solution (final concentration of 3.8 μM), After 3 h incubation at 37°C, ThS (final concentration of 10 μM) was added, and the fluorescence intensity at 440/500 nm (excitation/emission) was recorded on Hitachi F-7000 with a 10-mm quartz cell. The dose−response inhibitory effects of R3 aggregation were expressed by the aggregation percentage, which was calculated according to the following (Formula 4.3):(4.3) aggregation%=F-F0/Ft-F0×100
where F0 = fluorescence intensity of R3 monomer, Ft = fluorescence intensity of R3 aggregate, and F = fluorescence intensity of R3 aggregate in the presence of inhibitors. The IC50 values were also calculated according to the dose−response inhibitory effects.
Tau peptide R3 was adjusted to a concentration of 15 μM using Tris−HCl buffer (pH 7.4), and the synthetic compounds (4GA, 2GA, together with 4ME, GA as the comparison) at different concentrations, as aggregation inhibitor, were added into the reaction mixture separately. Aggregation was induced by heparin, and incubated at 37 °C for 3 h. By introducing fluorescence probe ThS, the dose−response inhibitory effects on R3 aggregation were recorded, according to normalized ThS fluorescence intensity (excitation: 440 nm, emission: 500 nm).
Figure S14. Inhibitory effects of N-substituted Azacrown on heparin-induced R3 aggregation, exermined by ThS fluorescence: 15 μM R3 and 3.8 μM heparin with cyclen, 1ME, 2ME, 3ME, and 4ME (80 μM) was incubated respectively at 37°C for 3h. 10 μM ThS was added to each of the solution, Spectra of ThS fluorescence were recorded at Ex440 nm.

tau peptide R3 [2] = target: T1, tau peptide R3; assay: ThS assay, Cu2+-promoted heparin-induced R3 aggregation; format: biochemical; conditions: R3 15 μM, Cu2+ 3.8 μM, compound 10 μM, heparin 3.8 μM, 3 h
Excerpt: Metal ions, especially Cu^2+, are believed to be highly compatible with cysteine residues of tau peptide as a coordination center ([26]). Accompanied by the formation of intermolecular S–Cu–S bridging coordination bond, or intermolecular disulfide bond, these metal ions have been proven to promote tau aggregation ([27]). After confirming that 4GA and 2GA can effectively remove copper ions through coordination, we further explore their effects on R3 aggregation under the promotion of Cu^2+. […] Heparin was used to initiate the aggregation ([15]). […] As a comparison, the effects of the precursor compounds: 4ME, 3ME, 2ME, and 1ME, on Cu^2+-promoted R3 aggregation were also examined (Fig. S15).
Figure 5 Kinetic curves and TEM image of R3 aggregation with 4GA or 2GA.A, kinetic curves of the R3 (15 μM) aggregation monitored by ThS fluorescence assay in different conditions. B, ThS fluorescence intensity of R3 (15 μM) incubated for 3 h in different conditions. C, TEM image of R3 fibrils in different conditions. Negatively stained with uranyl acetate. Scale bar represents 200 nm. Final concentrations of R3, Cu^2+, and inhibitors are 15, 3.8, and 10 μM, respectively. All aggregations were initiated by heparin (3.8 μM). 2GA, (4,10-dimethyl-1,4,7,10-tetraazacyclododecane-1,7-diyl)bis((3,4,5-trihydroxyphenyl)methanone); 4GA, (1,4,7,10-tetraazacyclododecane-1,4,7,10-tetrayl)tetrakis((3,4,5-trihydroxyphenyl)methanone); TEM, transmission electron microscopy; ThS, thioflavin S.
The promotion of Cu^2+ on R3 aggregation was also inspected, similar to the aforementioned operation, unless that 3.8 μM Cu^2+ was also included, and using 50 mM Hepes (pH 7.4) as the buffer solution.
Fig. S15 ThS fluorescence intensity of R3 (15 µM) incubated for 3 h. Final concentrations of R3, Cu^2+, and compounds are 15, 3.8 and 10 µM, respectively. All aggregations were initiated by heparin (3.8 µM).

tau protein = conditions: cited from earlier work
[3] = design: method as in PMID 19496588; conditions: cited from earlier work
tau peptide R3 [4] = target: T1, tau peptide R3; design: method as in PMID 23442089; conditions: reported earlier; read-out: IC50 on R3 aggregation; cited from earlier work

T1 sequence (P10636 623-653 limits assumed): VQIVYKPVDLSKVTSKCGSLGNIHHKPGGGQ

Row | Molecule | effect on heparin-induced R3 aggregation (ThS fluorescence at 500 nm) (tau peptide R3 [1]) | ThS fluorescence intensity of R3 aggregation in the presence of Cu2+ (tau peptide R3 [2]) | further results
1 | 1,4,7-trimethyl-1,4,7,10-tetraazacyclododecane [2ME] | did not hinder the aggregation of R3 peptides | only to a level close to the case of R3 aggregation in the absence of Cu^2+ | 
2 | CN1CCNCCNCCNCC1 [1ME, 1-methyl-1,4,7,10-tetraazacyclododecane] | did not hinder the aggregation of R3 peptides | only to a level close to the case of R3 aggregation in the absence of Cu^2+ | 
3 | CN1CCNCCN(C)CCN(C)CC1 [3ME, 1,4,7-trimethyl-1,4,7,10-tetraazacyclododecane] | did not hinder the aggregation of R3 peptides | only to a level close to the case of R3 aggregation in the absence of Cu^2+ | 
4 | C=C(C)[C@@H]1CCC(C)=C[C@H]1c1c(O)cc(CCCCC)cc1O [cannabidiol] |  |  | binding ability to tau protein (tau protein): 42100 M⁻¹
5 | C1CNCCNCCNCCN1 [cyclen, 1,4,7,10-tetraazacyclododecane] |  |  | log KCu-cyclen (thermodynamic stability) [3]: 24.8
6 | Nc1nc(=O)c2nc(CNc3ccc(C(=O)N[C@@H](CCC(=O)O)C(=O)O)cc3)cnc2[nH]1 [folic acid] |  |  | binding ability to tau protein (tau protein): 230000 M⁻¹
7 | tannic acid |  |  | IC50 (tau peptide R3 [4]): 3.5 µM

Source: PMC12455130, “Multifunctional molecular agent for tau-targeted combinational therapy of Alzheimer’s disease” (The Journal of Biological Chemistry, 2025)
